From PubChem BioAssay (NCI) come the findings set out here.

Broadly, the GI50 is the concentration at which growth is held to half of that of the control. One may read the TGI as the concentration giving total growth inhibition. Low values mean greater sensitivity of the cells, high ones lower sensitivity of the cells.

The structures appear in SMILES notation.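 Cells were grown in 96-well plates and exposed to each compound for 48 hours at five concentrations; endpoints were interpolated linearly between bracketing concentrations, or set to the highest concentration if not reached. The concentration for 50% growth inhibition is given as GI50. The concentration for full growth arrest is given as TGI.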

Test systems include HL-60(TB) leukemia; IGROV1 ovarian; K-562 leukemia; MALME-3M melanoma; NCI-H460 lung; NCI-H522 lung; SF-295 CNS; SK-OV-3 ovarian; SN12C renal; SW-620 colon.
Common to all, as to assay: DTP human tumour cell line panel, 48 h

`CC(C)Oc1ccc(C(=O)Cn2ccnc2)cc1-n1c(CN2CCN(C(=O)COc3ccc(Cl)cc3)CC2)nc2ccccc2c1=O`: the GI50 in the assay on HL-60(TB) leukemia is 2.3 µM; with IGROV1 ovarian it was 1 µM; in the assay with K-562 leukemia, 5.77 µM; in the assay on MALME-3M melanoma, 12.5 µM; in the assay on NCI-H460 lung, 16.8 µM; with NCI-H522 lung, 2.24 µM. For the same compound, the GI50 was 14.8 µM in the assay with SF-295 CNS, 20 µM with SK-OV-3 ovarian, 14.6 µM in the assay on SN12C renal and 13.4 µM with SW-620 colon. For the same compound, the TGI in the assay with HL-60(TB) leukemia turned out to be 27.7 µM; in the assay with IGROV1 ovarian it was 16.5 µM; in the assay on K-562 leukemia, 81.3 µM; with MALME-3M melanoma, 30.3 µM; in the assay with NCI-H460 lung, 33.7 µM; in the assay on NCI-H522 lung, 14.8 µM. Besides, the TGI in the assay on SF-295 CNS was found to be 31.6 µM; with SK-OV-3 ovarian it was 76.2 µM; in the assay on SN12C renal, 33.6 µM; in the assay on SW-620 colon it was 50.9 µM.
In the case of `COc1ccc2[nH]c(-c3ccc(O)cc3)cc(=O)c2c1`, the TGI in the assay with HL-60(TB) leukemia was 2.16 µM; with IGROV1 ovarian it was over 62.8 µM; with K-562 leukemia, over 48.3 µM; in the assay on MALME-3M melanoma it was over 29.1 µM; with NCI-H460 lung it was 9.35 µM; in the assay with NCI-H522 lung, 1.35 µM. For the same compound, the TGI was 6.71 µM with SF-295 CNS, 7.49 µM in the assay with SK-OV-3 ovarian, 54.2 µM in the assay on SN12C renal and over 100 µM in the assay with SW-620 colon.
Consider `COc1ccc(C2=C(N3CCc4ccccc43)C(=O)NC2=O)cc1`, for which the GI50 in the assay on HL-60(TB) leukemia was over 21.1 µM; with IGROV1 ovarian, over 25 µM; in the assay with K-562 leukemia it was over 17.4 µM; with MALME-3M melanoma, over 25 µM; with NCI-H460 lung it was over 25 µM; in the assay with NCI-H522 lung it was over 17.9 µM. The GI50 in the assay on SF-295 CNS, in the assay with SK-OV-3 ovarian, in the assay on SN12C renal and in the assay on SW-620 colon was over 25 µM throughout. The TGI in the assay on HL-60(TB) leukemia, in the assay on IGROV1 ovarian, in the assay with K-562 leukemia, in the assay with MALME-3M melanoma, in the assay on NCI-H460 lung and with NCI-H522 lung was over 25 µM each time. For the same compound, the TGI in the assay with SF-295 CNS, with SK-OV-3 ovarian, in the assay on SN12C renal and with SW-620 colon was over 25 µM in each case.
Consider `CC(C)(C)NCC(COc1ccc([N+](=O)[O-])cc1)OP(c1ccccc1)c1ccccc1` (centres undefined), for which the TGI in the assay on HL-60(TB) leukemia was 47.3 µM; in the assay with IGROV1 ovarian, over 100 µM; in the assay on K-562 leukemia, over 100 µM; with MALME-3M melanoma, 67 µM; in the assay with NCI-H460 lung it was over 100 µM; with NCI-H522 lung, 69.5 µM. For the same compound, the TGI in the assay with SF-295 CNS, in the assay on SK-OV-3 ovarian, in the assay with SN12C renal and in the assay on SW-620 colon was over 100 µM in each case.
Consider `c1cnn2ncc(-c3ccnc(Nc4ccc5c(c4)OCCO5)n3)c2c1`, for which the GI50 with HL-60(TB) leukemia is 0.0423 µM; in the assay on IGROV1 ovarian, 0.0815 µM; with K-562 leukemia, 0.285 µM; in the assay with MALME-3M melanoma it was 0.0833 µM; in the assay with NCI-H460 lung, 0.0731 µM; in the assay with NCI-H522 lung, 0.116 µM. Besides, the GI50 with SF-295 CNS is 0.0799 µM; in the assay on SK-OV-3 ovarian it was 0.178 µM; in the assay on SN12C renal, 0.0875 µM; in the assay on SW-620 colon, 0.0786 µM. The TGI was 0.155 µM with HL-60(TB) leukemia; over 25 µM in the assay with IGROV1 ovarian; over 25 µM in the assay with K-562 leukemia; 0.276 µM with MALME-3M melanoma; 0.258 µM with NCI-H460 lung; 0.592 µM in the assay on NCI-H522 lung. Moreover, the TGI in the assay on SF-295 CNS is 0.987 µM; in the assay with SK-OV-3 ovarian, over 25 µM; with SN12C renal it was over 25 µM; with SW-620 colon, 0.383 µM.
With `CCN(CC)c1ccc(/C=C/C2=[N+](C)c3ccccc3C2(C)C)c(C)c1`, the GI50 in the assay on HL-60(TB) leukemia was 0.0367 µM; in the assay with IGROV1 ovarian, 0.117 µM; with K-562 leukemia, 0.0377 µM; with MALME-3M melanoma, 0.155 µM; with NCI-H460 lung, under 0.0222 µM; in the assay on NCI-H522 lung it was 0.0482 µM. Further, the GI50 in the assay on SF-295 CNS was 0.0358 µM; with SK-OV-3 ovarian, 0.0546 µM; in the assay on SN12C renal, 0.0738 µM; in the assay on SW-620 colon, 0.0703 µM. For the same compound, the TGI with HL-60(TB) leukemia came out at 0.138 µM; in the assay on IGROV1 ovarian it was 11.4 µM; in the assay with K-562 leukemia, 12.2 µM; with MALME-3M melanoma, 1.09 µM; with NCI-H460 lung, 1.3 µM; in the assay with NCI-H522 lung, 0.269 µM. For the same compound, the TGI amounted to 1.49 µM with SF-295 CNS, 0.21 µM with SK-OV-3 ovarian, 1.24 µM with SN12C renal and 12.8 µM with SW-620 colon.
Consider `c1ccc2[nH]c(CNc3ccc(C4C[Se]N=N4)cc3)nc2c1` (centres undefined), for which the TGI in the assay on HL-60(TB) leukemia was 77.7 µM; in the assay with IGROV1 ovarian, over 100 µM; in the assay with K-562 leukemia it was over 100 µM; in the assay with MALME-3M melanoma it was over 100 µM; in the assay with NCI-H460 lung, over 100 µM; in the assay with NCI-H522 lung, over 100 µM. The TGI in the assay on SF-295 CNS was 92.3 µM; in the assay on SK-OV-3 ovarian it was over 100 µM; in the assay on SN12C renal, over 100 µM; in the assay with SW-620 colon, over 100 µM.
As for `Cc1cccc(N=Nc2ccc(N=Nc3c(O)ccc4ccccc34)cc2C)c1`, the TGI in the assay with HL-60(TB) leukemia is over 100 µM; in the assay on IGROV1 ovarian, over 100 µM; with K-562 leukemia it was over 100 µM; with MALME-3M melanoma it was 5.34 µM; with NCI-H460 lung, over 100 µM; in the assay on NCI-H522 lung it was 37.6 µM. The TGI is over 100 µM with SF-295 CNS, 92.4 µM with SK-OV-3 ovarian and over 100 µM in the assay on SW-620 colon.
On to `CC1=NN(C(=O)c2ccncc2)C(=O)C1N=Nc1ccc(F)cc1` (centres undefined), for which the TGI in the assay on HL-60(TB) leukemia, with IGROV1 ovarian, in the assay with K-562 leukemia, in the assay with MALME-3M melanoma, in the assay with NCI-H460 lung and with NCI-H522 lung was over 100 µM each time. Moreover, the TGI in the assay on SF-295 CNS, with SK-OV-3 ovarian, with SN12C renal and in the assay with SW-620 colon was over 100 µM each time.
Turning to `OCc1ccc(N2CCOCC2)cc1Cl`, the GI50 was over 100 µM in the assay on HL-60(TB) leukemia; 6.73 µM in the assay on IGROV1 ovarian; over 100 µM in the assay on K-562 leukemia; over 100 µM in the assay with MALME-3M melanoma; 30.9 µM with NCI-H460 lung; over 100 µM in the assay with NCI-H522 lung. Further, the GI50 was 28.2 µM in the assay on SF-295 CNS, over 100 µM in the assay with SK-OV-3 ovarian, over 100 µM in the assay on SN12C renal and over 100 µM with SW-620 colon. Moreover, the TGI was over 100 µM with HL-60(TB) leukemia; 32.6 µM with IGROV1 ovarian; over 100 µM in the assay with K-562 leukemia; over 100 µM with MALME-3M melanoma; over 100 µM in the assay with NCI-H460 lung; over 100 µM in the assay on NCI-H522 lung. Moreover, the TGI with SF-295 CNS, with SK-OV-3 ovarian, in the assay with SN12C renal and with SW-620 colon was over 100 µM in each case.
